Read-outs that look alike come from different tables or passages of the source.
Legend:
ALK = target: T1, ALK (Homo sapiens, UniProt Q9UM73); assay: ALK Kinase Assay (ELISA/TRF, PLC-γ substrate); assay type: biochemical; conditions: read-out: ALK Potency
T1 construct: host or cells: baculovirus expression system
Procedure, shortened: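 Time-resolved fluorescence ELISA using Eu-N1 PT66 antibody to detect phosphorylated PLC-γ (coated at 10 μg/mL). Enzyme at 30 ng/ml ALK; 15 min incubation, 37° C.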

JAK2 = target: T2, JAK2 (Homo sapiens, UniProt O60674); assay: Recombinant Human JAK2 Kinase Assay (TRF); assay type: biochemical; conditions: read-out: JAK2 Potency
T2 construct: host or cells: baculovirus expression system
T2 sequence (O60674 whole entry): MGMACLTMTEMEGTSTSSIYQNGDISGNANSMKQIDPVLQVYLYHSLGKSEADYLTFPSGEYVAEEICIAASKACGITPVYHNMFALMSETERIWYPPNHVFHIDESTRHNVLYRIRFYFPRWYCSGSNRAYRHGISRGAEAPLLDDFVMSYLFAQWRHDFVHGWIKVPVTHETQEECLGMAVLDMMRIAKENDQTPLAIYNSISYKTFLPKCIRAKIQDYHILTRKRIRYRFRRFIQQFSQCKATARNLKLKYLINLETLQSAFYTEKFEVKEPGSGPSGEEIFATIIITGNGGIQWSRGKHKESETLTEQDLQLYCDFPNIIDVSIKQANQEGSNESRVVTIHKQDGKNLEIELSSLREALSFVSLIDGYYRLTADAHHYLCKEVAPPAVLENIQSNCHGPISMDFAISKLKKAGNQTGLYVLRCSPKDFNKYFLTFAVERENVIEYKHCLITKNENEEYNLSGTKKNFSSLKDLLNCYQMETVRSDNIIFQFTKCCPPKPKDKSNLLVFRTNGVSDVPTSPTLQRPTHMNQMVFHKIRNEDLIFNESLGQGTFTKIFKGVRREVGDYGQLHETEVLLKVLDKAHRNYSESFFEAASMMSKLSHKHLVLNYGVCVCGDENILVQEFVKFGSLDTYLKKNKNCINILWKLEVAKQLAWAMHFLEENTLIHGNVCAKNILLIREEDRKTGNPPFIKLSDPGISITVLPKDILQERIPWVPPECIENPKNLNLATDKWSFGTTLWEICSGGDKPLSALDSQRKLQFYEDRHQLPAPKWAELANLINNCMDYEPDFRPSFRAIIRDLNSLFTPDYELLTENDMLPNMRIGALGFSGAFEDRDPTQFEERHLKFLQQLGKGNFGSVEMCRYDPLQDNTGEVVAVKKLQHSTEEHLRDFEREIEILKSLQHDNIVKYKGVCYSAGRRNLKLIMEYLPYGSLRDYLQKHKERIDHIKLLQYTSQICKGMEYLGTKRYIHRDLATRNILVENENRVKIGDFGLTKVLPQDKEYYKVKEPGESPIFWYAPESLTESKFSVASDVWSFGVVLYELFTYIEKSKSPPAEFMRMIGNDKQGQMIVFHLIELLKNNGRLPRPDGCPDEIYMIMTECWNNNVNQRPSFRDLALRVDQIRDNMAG
Procedure, shortened: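 Baculovirus-expressed JAK2 (15 ng/ml) phosphorylated a biotinylated 15-mer peptide captured on Neutravidin, in 20 mM HEPES pH 7.2, 0.2 μM ATP, 1 mM MnCl2, 0.1% BSA, 2.5% DMSO final, 20 min at room temperature. Phosphoproduct detected by time-resolved fluorescence with Eu-N1-labelled PY100 antibody.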

[1] = ALK kinase inhibition, 1 μM ATP
[2] = JAK2 kinase inhibition, 0.2 μM ATP

T1 sequence (Q9UM73 19-1620): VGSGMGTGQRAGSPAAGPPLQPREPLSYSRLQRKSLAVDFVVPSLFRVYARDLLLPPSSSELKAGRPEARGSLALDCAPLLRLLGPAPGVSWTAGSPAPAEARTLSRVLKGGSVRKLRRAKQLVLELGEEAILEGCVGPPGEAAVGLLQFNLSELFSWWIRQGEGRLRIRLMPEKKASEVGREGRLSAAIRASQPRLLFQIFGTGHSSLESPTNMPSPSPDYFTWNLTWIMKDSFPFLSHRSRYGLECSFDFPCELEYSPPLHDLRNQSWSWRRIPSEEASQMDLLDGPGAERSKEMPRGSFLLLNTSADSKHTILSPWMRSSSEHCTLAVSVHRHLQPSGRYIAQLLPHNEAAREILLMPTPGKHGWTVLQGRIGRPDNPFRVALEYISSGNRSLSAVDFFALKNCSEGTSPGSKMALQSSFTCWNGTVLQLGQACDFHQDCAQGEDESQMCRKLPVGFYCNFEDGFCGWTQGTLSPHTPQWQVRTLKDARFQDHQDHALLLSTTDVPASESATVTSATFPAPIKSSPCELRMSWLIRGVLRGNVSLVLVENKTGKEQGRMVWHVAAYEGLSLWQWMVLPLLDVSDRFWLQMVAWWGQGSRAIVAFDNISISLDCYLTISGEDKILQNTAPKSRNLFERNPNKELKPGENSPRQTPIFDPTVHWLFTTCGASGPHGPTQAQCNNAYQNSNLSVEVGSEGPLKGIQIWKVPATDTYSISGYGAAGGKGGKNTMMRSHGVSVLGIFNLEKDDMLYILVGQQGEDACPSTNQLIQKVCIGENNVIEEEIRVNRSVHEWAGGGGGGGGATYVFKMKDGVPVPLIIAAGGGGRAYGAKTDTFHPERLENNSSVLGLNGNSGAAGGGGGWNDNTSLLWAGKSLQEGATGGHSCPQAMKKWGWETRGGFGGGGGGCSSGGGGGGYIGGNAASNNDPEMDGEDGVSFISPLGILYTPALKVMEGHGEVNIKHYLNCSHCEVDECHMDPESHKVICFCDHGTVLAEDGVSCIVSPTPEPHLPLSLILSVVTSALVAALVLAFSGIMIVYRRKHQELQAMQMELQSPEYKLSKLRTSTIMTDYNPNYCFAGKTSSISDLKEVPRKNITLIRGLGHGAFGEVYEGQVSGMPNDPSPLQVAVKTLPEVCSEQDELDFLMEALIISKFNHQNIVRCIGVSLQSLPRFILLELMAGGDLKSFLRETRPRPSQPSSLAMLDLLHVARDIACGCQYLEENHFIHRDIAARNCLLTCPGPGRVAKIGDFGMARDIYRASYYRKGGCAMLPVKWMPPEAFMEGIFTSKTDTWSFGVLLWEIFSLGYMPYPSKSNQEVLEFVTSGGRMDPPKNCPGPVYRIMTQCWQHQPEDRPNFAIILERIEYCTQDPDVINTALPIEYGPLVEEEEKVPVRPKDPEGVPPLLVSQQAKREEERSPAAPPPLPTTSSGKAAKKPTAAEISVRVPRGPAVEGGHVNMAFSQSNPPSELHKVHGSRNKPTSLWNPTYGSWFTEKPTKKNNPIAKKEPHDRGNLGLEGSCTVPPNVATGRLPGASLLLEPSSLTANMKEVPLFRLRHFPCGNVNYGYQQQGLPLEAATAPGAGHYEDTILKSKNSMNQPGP

| Compound | IC50 (ALK; ALK Kinase Inhibition) [nM] | IC50 (JAK2; JAK2 Kinase Inhibition) [nM] | IC50 (ALK; [1]) [nM] | IC50 (JAK2; [2]) [nM] |
| --- | --- | --- | --- | --- |
| COc1ccccc1-c1ccc2cnc(Nc3ccc(OC)c(N4CCOCC4)c3)nn12 [Example 394, (4-Methoxy-3-morpholin-4-yl-phenyl)-[7-(2-methoxy-phenyl)-pyrrolo[2,1-f][1,2,4]triazin-2-yl]-amine] | < 100 | < 100 | – | – |
| COc1ccc(Cl)cc1-c1ccc2cnc(Nc3cccc(N4CCN(C[C@@H](C)O)CC4)c3)nn12 [Example 214, (R)-1-(4-{3-[7-(5-Chloro-2-methoxy-phenyl)-pyrrolo[2,1-f][1,2,4]triazin-2-ylamino]-phenyl}-piperazin-1-yl)-propan-2-ol] | < 100 | < 100 | – | – |
| CN1CCN(C)C(c2cccc(Nc3ncc4ccc(-c5ccc(S(C)(=O)=O)cc5)n4n3)c2)C1=O (stereo not drawn) [Example 1084, 3-{3-[7-(4-Methanesulfonyl-phenyl)-pyrrolo[2,1-f][1,2,4]triazin-2-ylamino]-phenyl}-1,4-dimethyl-piperazin-2-one] | – | – | > 10000 | < 100 |
| Brc1ccc(Nc2ncc3cc4ccccc4n3n2)cc1 [Example 751, (4-Bromo-phenyl)-[1,2,4]triazino[1,6-a]indol-2-yl-amine] | – | – | > 10000 | > 10000 |
| COc1cc2c(cc1Nc1ncc3ccc(-c4cccc5c4OCC5)n3n1)CCN(CCO)CC2 [Example 704, 2-{7-[7-(2,3-Dihydro-benzofuran-7-yl)-pyrrolo[2,1-f][1,2,4]triazin-2-ylamino]-8-methoxy-1,2,4,5-tetrahydro-3-benzazepin-3-yl}-ethanol] | – | – | < 100 | < 100 |
| COCCN1CC[C@](O)(c2ccc(Nc3ncc4ccc(-c5ccccc5N(C)S(C)(=O)=O)n4n3)c(OC)c2)[C@@H](O)C1 (racemic) [Example 846, (±)-N-[2-(2-{4-[(3S,4S)-3,4-Dihydroxy-1-(2-methoxy-ethyl)-piperidin-4-yl]-2-methoxy-phenylamino}-pyrrolo[2,1-f][1,2,4]triazin-7-yl)-phenyl]-N-methyl-methanesulfonamide] | – | – | < 100 | 100 to 1000 |
| COc1ccccc1-c1cc(Br)c2cnc(Nc3ccc(N4CCN(C)CC4)cc3)nn12 [Example 101, [5-Bromo-7-(2-methoxy-phenyl)-pyrrolo[2,1-f][1,2,4]triazin-2-yl]-[4-(4-methyl-piperazin-1-yl)-phenyl]-amine] | < 100 | < 100 | – | – |
| COc1cc(N2CCC(N3CCN(C)CC3)CC2)ccc1Nc1ncc2ccc(-c3cccc(S(=O)(=O)NC(C)(C)C)c3)n2n1 [Example 534, N-tert-Butyl-3-(2-{2-methoxy-4-[4-(4-methyl-piperazin-1-yl)-piperidin-1-yl]-phenylamino}-pyrrolo[2,1-f][1,2,4]triazin-7-yl)-benzene sulfonamide] | – | – | < 100 | < 100 |

Further lines, results first:

| IC50 (ALK; ALK Kinase Inhibition) [nM] | IC50 (JAK2; JAK2 Kinase Inhibition) [nM] | IC50 (ALK; [1]) [nM] | IC50 (JAK2; [2]) [nM] | Compound |
| --- | --- | --- | --- | --- |
| 100 to 1000 | < 100 | – | – | COc1ccccc1-c1ccc2cnc(Nc3ccc4nc(CN5CCN(CCO)CC5)[nH]c4c3)nn12 [Example 1522, 2-(4-{6-[7-(2-Methoxy-phenyl)-pyrrolo[2,1-f][1,2,4]triazin-2-ylamino]-1H-benzimidazol-2-ylmethyl}-piperazin-1-yl)-ethanol] |
| 1000 to 10000 | < 100 | – | – | CC(C)(C)NS(=O)(=O)c1cccc(-c2ccc3cnc(Nc4cccc(N5CCCC5=O)c4)nn23)c1 [Example 1383, N-tert-Butyl-3-{2-[3-(2-oxo-pyrrolidin-1-yl)-phenylamino]-pyrrolo[2,1-f][1,2,4]triazin-7-yl}-benzenesulfonamide] |
| – | – | 100 to 1000 | < 100 | COc1ccccc1-c1ccc2cnc(Nc3ccc(N4CCN(C)CC4)cn3)nn12 [Example 1177, [7-(2-Methoxy-phenyl)-pyrrolo[2,1-f][1,2,4]triazin-2-yl]-[5-(4-methyl-piperazin-1-yl)-pyridin-2-yl]-amine] |
| < 100 | 100 to 1000 | – | – | COc1cc(N2CCCC(N3CCN(C)CC3)C2)ccc1Nc1ncc2ccc(-c3ccccc3OC)n2n1 (single isomer, unassigned) [Example 1442, {2-Methoxy-4-[3-(4-methyl-piperazin-1-yl)-piperidin-1-yl]-phenyl}-[7-(2-methoxy-phenyl)-pyrrolo[2,1-f][1,2,4]triazin-2-yl]-amine] |

Reference: US8471005B2 (Cephalon, Inc., priority 2008, dated 2013)
